Where two headings read alike, the source gives them in different places.
How the values were obtained:
EZH2 enzyme complex = EZH2 enzyme complex (Homo sapiens (Human), UniProt Q15910); assay: Test on EZH2 inhibitory activity (TR-FRET); type: biochemical; conditions: EZH2 enzyme complex 25 ng/uL, histone H3 peptide 4 uM, SAM 2 uM, 300 min; read-out: IC50 of EZH2 inhibition
Protocol: • EZH2 enzyme complex: 25 ng/uL • Histone H3 peptide substrate: 4 uM • SAM: 2 uM • Reaction time: 300 min Procedures • 1. Each compound disclosed herein was diluted with 1×HMT buffer and transferred to a 384-well assay plate at 3 uL per well; • 2. The EZH2 enzyme solution was prepared with 1×HMT buffer and transferred to the 384-well assay plate at 2 uL per well; • 3. The above assay plate was incubated for 30 min; • 4. A mixture solution of SAM and histone H3 peptide substrate at 2-fold concentration was prepared with 4×HMT buffer; • 5. 5 uL of the mixture solution of SAM and substrate was added to each well of the assay plate to react at room temperature, and the assay plate was sealed with plastic; • 6. After incubation for 5 h, 10 uL of TR-FRET detection buffer containing Tb-labeled antibody and dye-labeled receptor was added to each well of the assay plate; • 7. After incubation for 1 h at room temperature, the assay plate was detected; • 8.

[1] = In vivo pharmacokinetic properties in mice; set-up: species or system mouse; conditions: male ICR mice; for F: intragastric 250 mg/kg vs intravenous 5 mg/kg; for CL / AUC(0-inf) / Cmax / Tmax / half-life: single intravenous 5 mg/kg and intragastric 250 mg/kg study; for AUC(0-inf) / Cmax / Tmax / half-life: mouse, plasma; for AUC(0-inf) / Cmax / Tmax: oral; for Cmax: read-out: Cmax; for Tmax: read-out: Tmax
Protocol: Male ICR mice were divided into different groups with 3 mice in each group, and single intravenous injection and single intragastric administration were conducted respectively. The compounds were formulated with 10% DMSO/90% (20% Captisol) to reach an appropriate concentration and then administered intravenously at 5 mg/kg. The compounds were formulated with 0.5% CMC-Na/0.1% Tween 80 (pH=3-4) to reach an appropriate concentration and then administered intragastrically at 250 mg/kg. Blood was taken at 5 min, 15 min, 30 min, 1 h, 2 h, 4 h, 6 h, 8 h and 24 h after administration, and then subjected to EDTA-K2 anticoagulation. The concentration of the compound in the plasma was quantitatively detected by an LC-MS/MS method.

Pfeiffer = assay: Methylated lysine of histone-H3 (H3K27Me3) detection by ELISA, Pfeiffer cells; type: cell-based, human; conditions: 7 days treatment, H3K27Me3 normalized to total histone-3, read-out: IC50 of cell methylation, Pfeiffer
Method in brief: (§1)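 Cells were treated 7 days with compound (4-fold dilutions, 20 uM-0.009 nM), then lysed hypotonically with NaCl adjusted to ~100 mM. Lysate-coated plates were probed by ELISA for H3K27Me3 and total H3 (TMB, A450). Methylation signal was normalised to total H3 before curve fitting.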

WSU-DLCL2 = assay: Methylated lysine of histone-H3 (H3K27Me3) detection by ELISA, WSU-DLCL2 cells; type: cell-based; conditions: WSU-DLCL2, 7 days treatment, H3K27Me3 normalized to total histone-3, read-out: IC50 of cell methylation, WSU-DLCL2
Method in brief: as §1

Sequence of EZH2 enzyme complex (Q15910 whole entry): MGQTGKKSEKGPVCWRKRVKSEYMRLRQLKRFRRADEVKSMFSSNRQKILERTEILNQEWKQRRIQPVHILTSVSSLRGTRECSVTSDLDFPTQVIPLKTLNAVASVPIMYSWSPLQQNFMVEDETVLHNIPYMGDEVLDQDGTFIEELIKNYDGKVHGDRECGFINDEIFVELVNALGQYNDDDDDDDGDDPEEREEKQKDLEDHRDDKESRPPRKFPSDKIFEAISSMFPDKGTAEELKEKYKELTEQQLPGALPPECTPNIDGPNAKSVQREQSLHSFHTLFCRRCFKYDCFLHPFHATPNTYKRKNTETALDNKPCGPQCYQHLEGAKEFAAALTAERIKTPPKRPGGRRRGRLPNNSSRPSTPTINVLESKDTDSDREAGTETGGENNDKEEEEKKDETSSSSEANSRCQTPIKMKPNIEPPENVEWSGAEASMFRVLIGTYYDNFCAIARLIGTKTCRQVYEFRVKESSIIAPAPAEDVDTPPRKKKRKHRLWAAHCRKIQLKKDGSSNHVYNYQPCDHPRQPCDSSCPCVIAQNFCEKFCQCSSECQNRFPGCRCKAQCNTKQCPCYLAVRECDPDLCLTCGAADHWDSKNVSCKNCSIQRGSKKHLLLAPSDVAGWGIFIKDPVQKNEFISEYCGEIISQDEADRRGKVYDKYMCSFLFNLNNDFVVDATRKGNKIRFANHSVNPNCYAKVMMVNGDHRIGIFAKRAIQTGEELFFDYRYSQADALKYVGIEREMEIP
Sequence of EZH2 enzyme complex (O75530 whole entry partner): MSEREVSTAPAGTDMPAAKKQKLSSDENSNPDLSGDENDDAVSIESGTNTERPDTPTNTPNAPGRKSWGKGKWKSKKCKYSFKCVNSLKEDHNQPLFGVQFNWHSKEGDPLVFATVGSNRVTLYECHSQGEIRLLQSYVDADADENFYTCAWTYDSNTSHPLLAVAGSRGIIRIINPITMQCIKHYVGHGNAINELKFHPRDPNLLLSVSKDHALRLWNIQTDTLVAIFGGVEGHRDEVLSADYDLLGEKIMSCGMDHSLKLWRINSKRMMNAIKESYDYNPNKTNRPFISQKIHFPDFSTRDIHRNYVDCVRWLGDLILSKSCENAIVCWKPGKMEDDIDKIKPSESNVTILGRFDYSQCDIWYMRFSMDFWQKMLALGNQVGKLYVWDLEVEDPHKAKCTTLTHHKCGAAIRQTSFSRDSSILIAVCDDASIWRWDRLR
Sequence of EZH2 enzyme complex (Q15022 whole entry partner): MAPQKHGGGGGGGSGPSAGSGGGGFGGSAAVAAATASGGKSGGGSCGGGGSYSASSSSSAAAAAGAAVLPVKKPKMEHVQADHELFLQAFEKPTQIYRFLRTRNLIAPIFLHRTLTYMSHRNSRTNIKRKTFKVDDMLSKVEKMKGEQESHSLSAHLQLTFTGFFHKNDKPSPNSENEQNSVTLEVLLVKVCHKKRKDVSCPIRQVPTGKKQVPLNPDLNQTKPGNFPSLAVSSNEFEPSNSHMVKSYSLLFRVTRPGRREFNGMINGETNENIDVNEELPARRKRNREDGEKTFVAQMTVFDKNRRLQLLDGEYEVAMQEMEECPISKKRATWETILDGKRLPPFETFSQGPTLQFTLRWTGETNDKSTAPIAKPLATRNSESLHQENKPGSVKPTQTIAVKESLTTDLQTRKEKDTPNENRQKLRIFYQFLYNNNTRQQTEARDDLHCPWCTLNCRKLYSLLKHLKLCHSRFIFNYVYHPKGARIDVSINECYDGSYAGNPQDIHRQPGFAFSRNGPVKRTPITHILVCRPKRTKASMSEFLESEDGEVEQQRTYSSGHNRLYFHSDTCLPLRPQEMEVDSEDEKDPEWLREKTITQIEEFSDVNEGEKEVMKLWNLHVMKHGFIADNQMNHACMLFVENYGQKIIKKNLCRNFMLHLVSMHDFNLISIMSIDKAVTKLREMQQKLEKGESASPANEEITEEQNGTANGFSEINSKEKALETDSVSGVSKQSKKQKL

Question: What does the source list for `CCN(c1cc(O[C@H]2C[C@H](N3CCC(C)CC3)C2)cc(C(=O)NCc2c(C)cc(C)[nH]c2=O)c1Cl)C1CCOCC1` [Example 59, 2-chloro-N-((4,6-dimethyl-2-oxo-1,2-dihydropyridin-3-yl)methyl)-3-(ethyl(tetrahydro-2H-pyran-4-yl)amino)-5-(trans-3-(4-methylpiperidin-1-yl)cyclobutoxy)benzamide]?
Answer: IC50 (EZH2 enzyme complex): < 10 nM; F [1]: 60.5%; CL [1]: 59.1 ± 6.95 mL/min/lg; AUC(0-inf) [1]: 43000 ng·h/mL; Cmax [1]: 16600 ng/mL; Tmax [1]: 0.8 ± 0.27 h; half-life [1]: 6.2 ± 3.83 h; IC50 (Pfeiffer; Homo sapiens, 168 h): 50 to 500 nM; IC50 (WSU-DLCL2; Homo sapiens, WSUDLCL2, 168 h): < 50 nM

Question: For `CCN(c1cc(O[C@H]2C[C@H](N3CCOCC3)C2)cc(C(=O)NCc2c(C)cc(C)[nH]c2=O)c1C)C1CCOCC1` [Example 4, N-((4,6-dimethyl-2-oxo-1,2-dihydropyridin-3-yl)methyl)-3-(ethyl(tetrahydro-2H-pyran-4-yl)amino)-2-methyl-5-(trans-3-morpholinylcyclobutoxy)benzamide], which IC50 (EZH2 enzyme complex) is on record?
Answer: 10 to 100 nM

Question: And the F [1]?
Answer: 25.1%

Question: What about the CL [1] of the same compound?
Answer: 60.6 ± 19.36 mL/min/lg

Question: And the AUC(0-inf) [1]?
Answer: 18800 ± 487 ng·h/mL

Question: What about the Cmax [1] of the same compound?
Answer: 16500 ± 4630 ng/mL

Question: And the Tmax [1]?
Answer: 0.33 ± 0.14 h

Question: What about the half-life [1] of the same compound?
Answer: 3.13 ± 3.1 h

Question: What about the IC50 (Pfeiffer; Homo sapiens, 168 h) of the same compound?
Answer: < 50 nM

Question: What about the IC50 (WSU-DLCL2; Homo sapiens, WSUDLCL2, 168 h) of the same compound?
Answer: 50 to 500 nM

Question: With `CCN(c1cc(O[C@H]2C[C@H](N3C[C@@H](C)O[C@@H](C)C3)C2)cc(C(=O)NCc2c(C)cc(C)[nH]c2=O)c1C)C1CC2CCC(C1)O2` (stereo partly drawn) [Example 47, 3-((8-oxabicyclo[3.2.1]octan-3-yl)(ethyl)amino)-N-((4,6-dimethyl-2-oxo-1,2-dihydropyridin-3-yl)methyl)-5-(trans-3-(cis-2,6-dimethylmorpholinyl)cyclobutoxy)-2-methylbenzamide] as the compound, how does the IC50 (EZH2 enzyme complex) read?
Answer: 10 to 100 nM

Question: What about the F [1] of the same compound?
Answer: 118.1%

Question: What about the CL [1] of the same compound?
Answer: 103 ± 11.9 mL/min/lg

Question: And the AUC(0-inf) [1]?
Answer: 48000 ng·h/mL

Question: And the Cmax [1]?
Answer: 19600 ± 8050 ng/mL

Question: What about the Tmax [1] of the same compound?
Answer: 0.67 ± 0.29 h

Question: What about the half-life [1] of the same compound?
Answer: 3.1 ± 1.04 h

Question: And the IC50 (Pfeiffer; Homo sapiens, 168 h)?
Answer: 50 to 500 nM

Question: What about the IC50 (WSU-DLCL2; Homo sapiens, WSUDLCL2, 168 h) of the same compound?
Answer: 50 to 500 nM

Question: What does the source list for `CCN(c1cc(OC2CC(C(=O)N3CCOCC3)C2)cc(C(=O)NCc2c(C)cc(C)[nH]c2=O)c1C)C1CCOCC1` (stereo not drawn) [Example 13, N-((4,6-dimethyl-2-oxo-1,2-dihydropyridin-3-yl)methyl)-3-(ethyl(tetrahydro-2H-pyran-4-yl)amino)-2-methyl-5-(3-(morpholine-4-carbonyl)cyclobutoxy)benzamide]?
Answer: IC50 (EZH2 enzyme complex): 10 to 100 nM; IC50 (Pfeiffer; Homo sapiens, 168 h): < 50 nM; IC50 (WSU-DLCL2; Homo sapiens, WSUDLCL2, 168 h): 50 to 500 nM

Question: For `CCN(c1cc(O[C@H]2C[C@H](CN3C[C@@H](C)O[C@@H](C)C3)C2)cc(C(=O)NCc2c(C)cc(C)[nH]c2=O)c1C)C1CCOCC1` [Example 31, N-((4,6-dimethyl-2-oxo-1,2-dihydropyridin-3-yl)methyl)-5-(trans-3-((cis-2,6-dimethylmorpholinyl)methyl)cyclobutoxy)-3-(ethyl(tetrahydro-2H-pyran-4-yl)amino)-2-methylbenzamide], which IC50 (EZH2 enzyme complex) is on record?
Answer: 10 to 100 nM

Question: And the IC50 (Pfeiffer; Homo sapiens, 168 h)?
Answer: < 50 nM

Question: And the IC50 (WSU-DLCL2; Homo sapiens, WSUDLCL2, 168 h)?
Answer: < 50 nM

Question: What does the source list for `CCN(c1cc(OC2CC(C)(C)C2)cc(C(=O)NCc2c(C)cc(C)[nH]c2=O)c1C)C1CCOCC1` [Example 12, N-((4,6-dimethyl-2-oxo-1,2-dihydropyridin-3-yl)methyl)-5-(3,3-dimethylcyclobutoxy)-3-(ethyl(tetrahydro-2H-pyran-4-yl)amino)-2-methylbenzamide]?
Answer: IC50 (EZH2 enzyme complex): 10 to 100 nM; IC50 (Pfeiffer; Homo sapiens, 168 h): 50 to 500 nM; IC50 (WSU-DLCL2; Homo sapiens, WSUDLCL2, 168 h): > 1000 nM

Question: What does the source list for `CCN(c1cc(C2CC2CN2CCC(F)(F)CC2)cc(C(=O)NCc2c(C)cc(C)[nH]c2=O)c1C)C1CCOCC1` (stereo not drawn) [Example 78, 5-(2-((4,4-difluoropiperidin-1-yl)methyl)cyclopropyl)-N-((4,6-dimethyl-2-oxo-1,2-dihydropyridin-3-yl)methyl)-3-(ethyl(tetrahydro-2H-pyran-4-yl)amino)-2-methylbenzamide]?
Answer: IC50 (EZH2 enzyme complex): 10 to 100 nM; IC50 (Pfeiffer; Homo sapiens, 168 h): < 50 nM; IC50 (WSU-DLCL2; Homo sapiens, WSUDLCL2, 168 h): 50 to 500 nM

Question: Which results are given for `CCN(c1cc(O[C@H]2C[C@H](N3CCNCC3)C2)cc(C(=O)NCc2c(C)cc(C)[nH]c2=O)c1C)C1CCOCC1` [Example 18, N-((4,6-dimethyl-2-oxo-1,2-dihydropyridin-3-yl)methyl)-3-(ethyl(tetrahydro-2H-pyran-4-yl)amino)-2-methyl-5-(trans-3-(piperazin-1-yl)cyclobutoxy)benzamide]?
Answer: IC50 (EZH2 enzyme complex): 10 to 100 nM; IC50 (Pfeiffer; Homo sapiens, 168 h): < 50 nM; IC50 (WSU-DLCL2; Homo sapiens, WSUDLCL2, 168 h): 50 to 500 nM

Question: Which IC50 (EZH2 enzyme complex) does the source give for `CCN(c1cc(C2CC2CN2CCOCC2)cc(C(=O)NCc2c(C)cc(C)[nH]c2=O)c1C)C1CCOCC1` (stereo not drawn) [Example 72, N-((4,6-dimethyl-2-oxo-1,2-dihydropyridin-3-yl)methyl)-3-(ethyl(tetrahydro-2H-pyran-4-yl)amino)-2-methyl-5-(2-(morpholinylmethyl)cyclopropyl)benzamide] here?
Answer: 10 to 100 nM

Question: What about the IC50 (Pfeiffer) of the same compound?
Answer: < 50 nM

Question: And the IC50 (WSU-DLCL2)?
Answer: 50 to 500 nM

Question: Which results are given for `Cc1cc(C)c(CNC(=O)c2cc(O[C@H]3C[C@H](N4C[C@@H](C)O[C@@H](C)C4)C3)cc(NC3CCOCC3)c2C)c(=O)[nH]1` [Example 57, N-((4,6-dimethyl-2-oxo-1,2-dihydropyridin-3-yl)methyl)-5-(trans-3-(cis-2,6-dimethylmorpholino)cyclobutoxy)-2-methyl-3-((tetrahydro-2H-pyran-4-yl)amino)benzamide]?
Answer: IC50 (EZH2 enzyme complex): > 1000 nM; IC50 (Pfeiffer; Homo sapiens, 168 h): > 1000 nM; IC50 (WSU-DLCL2; Homo sapiens, WSUDLCL2, 168 h): > 1000 nM

Question: With `CCN(c1cc(O[C@H]2C[C@H](N3CCN(S(C)(=O)=O)CC3)C2)cc(C(=O)NCc2c(C)cc(C)[nH]c2=O)c1C)C1CCOCC1` [Example 28, N-((4,6-dimethyl-2-oxo-1,2-dihydropyridin-3-yl)methyl)-3-(ethyl(tetrahydro-2H-pyran-4-yl)amino)-2-methyl-5-(trans-3-(4-(methylsulfonyl)piperazin-1-yl)cyclobutoxy)benzamide] as the compound, how does the IC50 (EZH2 enzyme complex) read?
Answer: 10 to 100 nM

Question: What about the IC50 (Pfeiffer; Homo sapiens, 168 h) of the same compound?
Answer: < 50 nM

Question: And the IC50 (WSU-DLCL2; Homo sapiens, WSUDLCL2, 168 h)?
Answer: < 50 nM

Question: With `CCN(c1cc(OC2CCC2)cc(C(=O)NCc2c(C)cc(C)[nH]c2=O)c1Cl)C1CCOCC1` [Example 11, 2-chloro-5-cyclobutoxy-N-((4,6-dimethyl-2-oxo-1,2-dihydropyridin-3-yl)methyl)-3-(ethyl(tetrahydro-2H-pyran-4-yl)amino) benzamide] as the compound, how does the IC50 (EZH2 enzyme complex) read?
Answer: 10 to 100 nM

Question: What about the IC50 (Pfeiffer; Homo sapiens, 168 h) of the same compound?
Answer: 50 to 500 nM

Question: And the IC50 (WSU-DLCL2; Homo sapiens, WSUDLCL2, 168 h)?
Answer: 50 to 500 nM

From patent US12390472B2 (SUZHOU SINOVENT PHARMACEUTICALS CO., LTD., priority 2018, dated 2025)
